US11945862B2, “Compositions and methods for antibody production” (ImmunoGen, Inc., priority 2017, dated 2024)

Columns and labels:
[1] = tested on: Humanized anti-folate receptor 1 (FOLR1) IgG1; test: Antibody disulfide reduction by damaged CHO cell supernatant (freeze-thaw), thiol per antibody by Ellman's assay; assay type: biochemical; settings: for thiol/antibody ratio: about 2.5 hours, control 5.5; for thiol per antibody: 2.2 hours
Description: (§1) For all of the examples described below, cell damage was simulated by multiple freeze-thaw cycles of cells, by addition of RIPA buffer (50 mM Tris-HCl, pH 7.4, 1% NP-40, 0.5% sodium deoxycholate, 0.1% sodium dodecylsulfate), or by using microfluidizer. This damaged cell supernatant or lysate was then incubated with a buffered solution containing antibody with or without the anti-reduction agent being tested, following which the extent of the antibody-disulfide reduction was measured using Ellman's assay for thiol (P. W. Riddles, R. L. Blakeley, and B. Zerner, Methods Enzymol., 91, 49-60, 1983) or by non-reducing SDS protein LabChip analysis. The total thiol level present in the mixture of damaged cell supernatant/lysate was measured initially.
(§2) A simulated, damaged CHO cell suspension was prepared using 300 million CHO cells per ml phosphate buffered saline (PBS), which was subjected to three freeze-thaw cycles under vacuum, followed by pelleting of cell debris by centrifugation, and storage of the supernatant at −80° C.
The concentration of thiol in the suspension of damaged CHO cells was measured as 4 mM using DTNB ((5,5′-dithiobis(2-nitrobenzoic acid); Ellman's reagent). Humanized anti-folate receptor 1 (FOLR1) IgG1 (1 mg) was immobilized on 0.05 ml of Protein A bead (RepliGen) and then treated with pre-mixed 0.5 ml PBS and 0.1 ml damaged CHO cell supernatant. The concentration of thiol in this mixture was 0.67 mM.
The sample was rotated for about 2.2 hours at ambient temperature, following which the supernatant was removed and the beads were washed with PBS four times (1.5 ml each). The thiol content of the immobilized antibody on the beads was then analyzed by the addition of 0.6 ml of PBS containing 0.5 mM DTNB, rotation for about 10 minutes, centrifugation, and measurement of the absorbance of the supernatant at 412 nm.
Methylene blue was then tested at different concentrations to determine whether it could protect against disulfide bond reduction during the incubation of antibody with damaged CHO cell supernatant. FIG. 1 is a graph showing the results of immobilized 1 mg humanized IgG1 with pre-mixed 0.5 ml PBS and 0.1 ml damaged CHO cell supernatant in the presence of methylene blue, rotation for 2.2 hours at ambient temperature, and a similar thiol analysis of immobilized antibody as above. Unexpectedly, very low concentrations of methylene blue (0.025 and 0.05 mM) protected against the reduction of antibody disulfide bonds.
In a similar experiment, a sample containing 1 mg immobilized antibody was incubated with a mixture of damaged CHO cell supernatant and 0.05 mM methylene blue for 2.2 hours, followed by washing of beads as above, after which the antibody was eluted from Protein A bead using 100 mM acetic acid containing 150 mM NaCl, neutralized to pH 7 by addition of 1.25 M […] solution. Using an aliquot of the neutralized eluted antibody sample, the thiol per antibody was measured as 0.002 thiol per antibody using DTNB, thus indicating the protection against antibody disulfide reduction by methylene blue. […]

CHO cells = test: Viability of CHO cells after 1 day treatment; settings: 0.75 mM, control 98.9%
humanized N901 antibody = test: Antibody disulfide reduction by CHO cell lysate (RIPA buffer), thiol/antibody by Ellman's assay; assay type: biochemical; settings: for thiol/antibody ratio: 3 hours, lysate thiol 2.1 mM, control 5.74
Description: as §1
The effect of 1,2-naphthoquinone-4-sulfonic acid (NQS) on antibody-disulfide reduction was studied by incubating 1,2-naphthoquinone-4-sulfonic acid at several concentrations with antibody and damaged CHO lysate. The damaged CHO cell lysate was generated by the addition of 0.5 ml RIPA buffer (50 mM Tris-HCl, pH 7.4, 1% NP-40, 0.5% sodium deoxycholate, 0.1% sodium dodecylsulfate) to 100 million CHO cells. The thiol concentration in CHO cell lysate was measured by Ellman's assay as 2.1 mM.
Each sample contained pre-mixed 0.5 ml RIPA buffer (50 mM Tris-HCl, pH 7.4, 1% NP-40, 0.5% sodium deoxycholate, 0.1% sodium dodecylsulfate) with 1 mg humanized N901 antibody, with or without 1,2-naphthoquinone-4-sulfonic acid (25 micromolar, or 50 micromolar, or 100 micromolar), which was added to a cell pellet of 100 million CHO cells, and the resuspended cells were incubated at ambient temperature for 30 minutes, following which the cell debris were pelleted by centrifugation (16,000 g, 5 min). The supernatant from each sample was added to 50 microliter immobilized-Protein A beads (RepliGen) and rotated at ambient temperature for 3 hours, after which the supernatant was removed and the beads washed with PBS.
(§3) The thiol content of the immobilized antibody was determined by the addition of 0.6 ml of PBS containing 0.5 mM DTNB (Ellman's reagent) to the beads, rotation for about 10 minutes, centrifugation, and absorbance measurement of supernatant at 412 nm.
The effect of anthraquinone-2-sulfonic acid (AQS) on antibody-disulfide reduction was studied during co-incubation of anthraquinone-2-sulfonic acid with antibody and damaged CHO lysate. Each sample contained pre-mixed 1 ml RIPA buffer (50 mM Tris-HCl, pH 7.4, 1% NP-40, 0.5% sodium deoxycholate, 0.1% sodium dodecylsulfate) with 1 mg humanized N901 antibody, with or without 0.2 mM anthraquinone-2-sulfonic acid (AQS), which was added to a cell pellet of 100 million CHO cells, and the resuspended cells were incubated at ambient temperature for 30 minutes, following which the cell debris were pelleted by centrifugation (16,000 g, 5 min). The thiol concentration in CHO cell lysate was 1 mM (Ellman's assay).
as §3, with “The supernatant from each sample was added to 50 microliter immobilized-Protein A beads (RepliGen) and rotated at ambient temperature for 3 hours, after which the supernatant was removed and the beads washed with PBS. The” for “The”
In another experiment, 1 mg huN901 antibody was incubated with CHO lysate, with or without 0.4 mM anthraquinone-2-sulfonic acid for 4 hours. The mixture was then analyzed for thiol/antibody as above.
The thiol concentration in CHO cell lysate was 1 mM (Ellman's assay).
The supernatant from each sample was added to 50 microliter immobilized-Protein A beads (RepliGen) and rotated at ambient temperature for 3 hours, after which the supernatant was removed and the beads washed with PBS. […]

[2] = tested on: Humanized FOLR1 IgG1 antibody; test: Antibody disulfide reduction by CHO cell lysate (RIPA buffer), thiol per antibody by Ellman's assay; assay type: biochemical; settings: 5 mM agent, 100 mM phosphate buffer pH 7, 2 hours
Description: Lysates of CHO cells (˜60 million cells lysed in 0.6 ml RIPA buffer and clarified by centrifugation) were added to each of these mixtures. The pH values of all samples were adjusted to 7. […] The samples were incubated with 200 microliter immobilized-Protein A beads (RepliGen) and rotated at ambient temperature for 3 hours, after which the supernatant was removed and the beads washed with PBS. The thiol content of the immobilized antibody was determined by the addition of 0.2 ml of PBS containing 0.5 mM DTNB (Ellman's reagent) to the beads, rotation for about 10 minutes, centrifugation, and absorbance measurement of the supernatant at 412 nm.
The pH values of all samples were adjusted to 7. The samples were incubated with 200 microliter immobilized-Protein A beads (RepliGen) and rotated at ambient temperature for 3 hours, after which the supernatant was removed and the beads washed with PBS. The thiol content of the immobilized antibody was determined by the addition of 0.2 ml of PBS containing 0.5 mM DTNB (Ellman's reagent) to the beads, rotation for about 10 minutes, centrifugation, and absorbance measurement of the supernatant at 412 nm.
To test the effect of L-cystine bis(t-butyl ester) (CDBE) on protecting antibody disulfide bonds from reduction by CHO lysate, humanized FOLR1 IgG1 antibody (2 mg) was incubated with CHO lysate in RIPA buffer (0.6 ml lysate of 60 million CHO cells in 0.6 ml RIPA buffer, clarified by centrifugation) without or with 0.5 or 1 mM CDBE. The samples were rotated at ambient temperature with 200 microliter immobilized-Protein A beads (RepliGen) for 2 hours, after which the supernatant was removed and the beads washed with PBS. The thiol content of the immobilized antibody was determined by the addition of 0.2 ml of PBS containing 0.5 mM DTNB (Ellman's reagent) to the beads, centrifugation, and absorbance measurement of the supernatant at 412 nm.
The samples were rotated at ambient temperature with 200 microliter immobilized-Protein A beads (RepliGen) for 2 hours, after which the supernatant was removed and the beads washed with PBS. The thiol content of the immobilized antibody was determined by the addition of 0.2 ml of PBS containing 0.5 mM DTNB (Ellman's reagent) to the beads, centrifugation, and absorbance measurement of the supernatant at 412 nm.

[3] = tested on: Humanized N901 (Anti-CD56 IgG1); test: Antibody disulfide reduction by damaged CHO cell supernatant (freeze-thaw), thiol per antibody by Ellman's assay; assay type: biochemical; settings: for thiol per antibody: about 1.5 hours, control 6.4; for thiol per antibody / protection toward antibody-disulfide reduction: total thiol 0.8 mM; for protection toward antibody-disulfide reduction: 0.2 and 0.1 mM agent; for thiol/antibody ratio: about 2.5 hours, total thiol 0.4 mM, control 1.99
Description: as §1, §2
Humanized N901 (Anti-CD56 IgG1; 1 mg) was immobilized on 0.05 ml of Protein A bead (RepliGen) and then treated with pre-mixed 0.4 ml PBS and 0.1 ml damaged CHO cell supernatant (described in Example 1) with or without the addition of coenzyme Q analogs. The concentration of thiol in these mixtures was 0.8 mM.
The samples were rotated for about 1.5 hours at ambient temperature, following which the supernatant was removed and the beads washed with PBS three times. The thiol content of the immobilized antibody on the beads was then analyzed by the addition of 0.6 ml of mixture of PBS and 0.5 mM DTNB, rotation for about 10 minutes, centrifugation, and measurement of the absorbance of the supernatant at 412 nm. The number of thiol residues per antibody molecule after incubation with damaged CHO cell supernatant (without any coenzyme Q analog) was measured as 6.4 thiol/antibody.
Humanized N901 IgG1 (1 mg) was immobilized on 0.05 ml of Protein A bead (RepliGen) and treated with pre-mixed 0.45 ml PBS and 0.05 ml damaged CHO cell supernatant with or without 0.1 mM and 0.2 mM disulfiram (also named as tetraethylthiuram disulfide; added using a stock solution of disulfiram in DMSO). The concentration of total thiol (derived from damaged cells) in this mixture was 0.4 mM.
The samples were rotated for about 2.5 hours at ambient temperature, then centrifuged to pellet beads, following which the supernatants were removed and the beads washed with PBS four times. The thiol content of the immobilized antibody on the beads was then analyzed by the addition of 0.6 ml PBS containing 0.5 mM DTNB to the beads, rotation for about 30 minutes, centrifugation, and measurement of the absorbance of the supernatant at 412 nm.

[4] = Redox potential of antibody solution with media additive over a range of DTT concentrations; assay type: physicochemical; settings: 1 mM additive, DTT 0.34 μM to 170 μM, 37° C., 1 h
M9346A antibody = assay type: biochemical; settings: 1 mM additive
Description: Antibody reduction was induced in a biological assay by adding cell lysate to purified monoclonal antibody. […]. Increasing amounts of CHO cell lysate were added to mimic different percentages of cell lysis, ranging from […]. Fresh NADPH was added to a concentration of 400 μM. The mixtures were incubated in a water bath at 37° C. for 1 h. Free thiols were alkylated by addition of 10% (v/v) of 50 mM N-ethyl-maleimide (NEM) solution. Samples were analyzed by non-reduced sodium dodecyl sulfate denaturing capillary electrophoresis (NR-CE-SDS).
To test the capacity for protection further, the stringency of the assay was increased. […].

With O=C(O)CCCCC1CCSS1 (racemic) [lipoic acid, 1,2-dithiolane-3-pentanoic acid] the thiol/antibody ratio ([1]; 0.5 mM agent, total thiol 0.67 mM) was 1.88, the thiol/antibody ratio ([1]; 2 mM agent, total thiol 0.67 mM) was 1.08 and the “viability of CHO cells” value (CHO cells) was 98.1%.

Compound CCOC(=O)[C@@H](N)CSSC[C@H](N)C(=O)OCC [CDEE, L-cystine diethyl ester] has a thiol/antibody (humanized N901 antibody; 0.75 mM agent, 4° C. overnight, control 2.29) of 1.02 thiol/antibody.

For CC(=O)N[C@@H](CSSC[C@H](NC(C)=O)C(=O)O)C(=O)O [Di-N-acetyl L-cystine], the “decrease in disulfide reduction compared to the control” value [2] was “about 64%” and the thiol per antibody ([2]; control 1.16) was “about 0.42 thiol per antibody”.

Work on O=C1C=C(S(=O)(=O)O)c2ccccc2C1=O [NQS, 1,2-naphthoquinone-4-sulfonic acid] yielded a thiol/antibody ratio (humanized N901 antibody; 0.025 mM agent) of 3.4, a thiol/antibody ratio (humanized N901 antibody; 0.05 mM agent) of 2.2 and a thiol/antibody ratio (humanized N901 antibody; 0.1 mM agent) of 1.25.

For COC1=C(OC)C(=O)C(C)=CC1=O [coenzyme Q0, 2,3-dimethoxy-5-methyl-p-benzoquinone], the thiol per antibody ([3]; 0.1 mM agent) was 0.63 thiol per antibody and the thiol per antibody ([3]; 0.2 mM agent) was 0.34 thiol per antibody.

In the case of COC1=C(OC)C(=O)C(C/C=C(\C)CCC=C(C)C)=C(C)C1=O [coenzyme Q2, 2,3-dimethoxy-5-methyl-6-geranyl-p-benzoquinone], the “protection toward antibody-disulfide reduction” value [3] was “decreased antibody disulfide-reduction”.

In the case of COC1=C(OC)C(=O)C(C/C=C(\C)CC/C=C(\C)CC/C=C(\C)CC/C=C(\C)CC/C=C(\C)CC/C=C(\C)CC/C=C(\C)CC/C=C(\C)CC/C=C(\C)CCC=C(C)C)=C(C)C1=O [coenzyme Q10, reference compound], the “protection toward antibody-disulfide reduction” value [3] was “did not show significant protection”.

For N[C@@H](CS)C(=O)O [cysteine, reference compound], the “modulation of redox potential” value [4] was “constant redox potential at low concentrations of DTT, followed by a slow decrease at higher DTT concentrations” and the intact antibody (M9346A antibody; lysate mimicking 120% cell lysis, 400 μM NADPH, 37° C., 1 h, control 40%) was ~70%.

With N[C@@H](CSSC[C@H](N)C(=O)O)C(=O)O [cystine] the “modulation of redox potential” value [4] was “step-wise modulation of redox potential”.

Work on CCN(CC)C(=S)SSC(=S)N(CC)CC [disulfiram, tetraethylthiuram disulfide, reference compound] yielded a thiol/antibody ratio ([3]; 0.1 mM agent) of 0.14 and a thiol/antibody ratio ([3]; 0.2 mM agent) of 0.03.

With CN(C)c1ccc2nc3ccc(N(C)C)cc3[s+]c2c1 [methylene blue, Methylene blue] the thiol per antibody ([1]; 0.025 mM agent, total thiol 0.67 mM, control 4.2) was 0.38 thiol per antibody, the thiol per antibody ([1]; 0.05 mM agent, antibody eluted from Protein A bead and neutralized) was 0.002 thiol per antibody and the thiol per antibody ([1]; 0.05 mM agent, total thiol 0.67 mM, control 4.2) was 0.33 thiol per antibody.

For O=S(=O)([O-])[O-].[Zn+2] [zinc], the “protection at increased assay stringency” value (M9346A antibody; conditions where control without additive was 100% fragmented) was “protective of disulfide reduction”.

oxidized glutathione [GSSG] showed a thiol/antibody (humanized N901 antibody; 2 mM GSSG alone, 2.5 hours, lysate thiol 1 mM, control 5.63) of 0.98 thiol/antibody.
